Measurements published in the supplement of paper PMC10307832.

Columns and labels:
Assay in all cases: relative viability (nuclei count vs DMSO), 5 days (fraction); higher = more cells survive
Axitinib + Lapatinib = compound: CNC(=O)c1ccccc1Sc1ccc2c(/C=C/c3ccccn3)n[nH]c2c1 [Axitinib] + CS(=O)(=O)CCNCc1ccc(-c2ccc3ncnc(Nc4ccc(OCc5cccc(F)c5)c(Cl)c4)c3c2)o1 [Lapatinib] (partner 2 µM)
Method in brief: (§1)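 After 5 days of treatment, lung cancer cells in 1536-well plates were fixed and stained in a single step (final 0.05% Triton X-100, 1% formaldehyde, 1 ug/ml Hoechst) and their nuclei counted on 4× images. Treatment had been applied by pin tool the day after seeding as one drug alone or as a fixed anchor-drug dose with five library-drug doses (not always all listed) in √10 steps. Relative viability is the nuclei count of treated wells divided by that of vehicle wells, and values are medians of duplicate plates.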

Bemcentinib + Phenformin = compound: Nc1nc(Nc2ccc3c(c2)CC[C@@H](N2CCCC2)CC3)nn1-c1cc2c(nn1)-c1ccccc1CCC2 [Bemcentinib] + N=C(N)NC(=N)NCCc1ccccc1 [Phenformin] (partner 250 µM)
Method in brief: as §1

Bemcentinib + Olaparib = compound: Nc1nc(Nc2ccc3c(c2)CC[C@@H](N2CCCC2)CC3)nn1-c1cc2c(nn1)-c1ccccc1CCC2 [Bemcentinib] + O=C(c1cc(Cc2n[nH]c(=O)c3ccccc23)ccc1F)N1CCN(C(=O)C2CC2)CC1 [Olaparib] (partner 8 µM)
Method in brief: as §1

[1] = compound: CC1=CC=C(C=C1)C(=O)CN2C3=C(CCCC3)SC2=N [Pifithrin_alpha] + N=C(N)NC(=N)NCCc1ccccc1 [Phenformin] (partner 250 µM)
Method in brief: as §1

Cell Line	relative viability (Axitinib + Lapatinib; first compound 0.005 µM)	relative viability (Axitinib + Lapatinib; first compound 0.05 µM)	relative viability (Axitinib + Lapatinib; first compound 0.1581 µM)	relative viability (Axitinib + Lapatinib; first compound 0.5 µM)	relative viability (Bemcentinib + Phenformin; first compound 0.04 µM)	relative viability (Bemcentinib + Phenformin; first compound 0.1265 µM)	relative viability (Bemcentinib + Phenformin; first compound 0.4 µM)	relative viability (Bemcentinib + Phenformin; first compound 1.265 µM)	relative viability (Bemcentinib + Phenformin; first compound 4 µM)	relative viability (Bemcentinib + Olaparib; first compound 0.04 µM)	relative viability (Bemcentinib + Olaparib; first compound 0.1265 µM)	relative viability (Bemcentinib + Olaparib; first compound 0.4 µM)	relative viability (Bemcentinib + Olaparib; first compound 1.265 µM)	relative viability (Bemcentinib + Olaparib; first compound 4 µM)	relative viability ([1]; first compound 1 µM)	relative viability ([1]; first compound 3.162 µM)	relative viability ([1]; first compound 10 µM)	relative viability ([1]; first compound 100 µM)	relative viability (Axitinib + Lapatinib; first compound 0.01581 µM)	relative viability ([1]; first compound 31.62 µM)
LK-2	0.916	0.776	0.745	0.625	0.461	0.483	0.443	0.463	0.828	0.694	0.756	0.837	0.839	0.677	0.352	0.571	0.563	0.466	–	–
LOU-NH91	0.839	0.836	0.711	0.705	0.637	0.663	0.73	0.748	0.673	0.886	0.848	0.942	0.927	0.937	0.514	0.647	0.689	0.627	0.789	0.665
LU99A	0.879	0.885	1.04	1.04	0.806	0.856	0.835	0.801	0.827	0.27	0.259	0.244	0.259	0.286	0.817	0.809	0.904	0.763	0.987	0.406
LXF-289	0.899	0.921	0.869	0.888	0.523	0.533	0.534	0.532	0.54	1.13	1.16	1.13	1.06	1.04	0.509	0.562	0.526	0.556	0.831	0.471
NCI-H23	1.22	1.15	1.01	1.28	0.813	0.822	0.803	0.659	0.755	0.246	0.338	0.381	0.308	0.298	0.853	0.734	0.764	0.753	1.1	–
NCI-H322M	0.658	0.591	0.566	0.652	0.726	0.804	0.739	0.862	0.833	0.796	0.84	0.844	0.854	0.839	0.825	0.728	0.869	0.728	0.603	0.713
NCI-H358	0.46	0.437	0.374	0.469	0.321	0.348	0.325	0.355	0.39	0.59	0.622	0.598	0.593	0.669	0.353	0.389	0.357	0.344	0.401	0.272
NCI-H460	1.15	0.809	0.953	1.35	0.552	0.7	0.522	0.607	0.568	0.433	0.407	0.555	0.52	0.473	0.494	0.576	0.473	0.443	0.999	0.179
NCI-H520	0.902	0.771	0.751	0.785	0.573	0.606	0.608	0.733	0.62	0.394	0.335	0.343	0.387	0.415	0.579	0.554	0.566	0.581	0.778	–
NCI-H596	1.11	1.03	0.887	1.14	0.698	0.733	0.783	0.713	0.772	0.605	0.749	0.759	0.613	0.773	0.761	0.737	0.84	0.494	0.935	0.766
NCI-H647	1.07	1.29	1.09	1.41	0.631	0.488	0.674	0.62	0.544	0.479	0.666	0.698	0.602	0.624	0.58	0.674	0.548	0.4	1.09	0.299
NCI-H661	0.608	0.359	0.481	0.534	0.268	0.263	0.28	0.271	0.286	0.692	0.782	0.789	0.738	0.763	0.24	0.29	0.292	0.282	0.522	0.308
NCI-H727	1.05	0.71	0.867	0.953	0.626	0.709	0.493	0.363	0.671	0.678	0.618	0.813	0.52	0.747	0.604	0.572	0.538	0.501	0.952	–
NCI-H838	1.29	1.11	1.01	1.03	0.544	0.493	0.561	0.659	0.566	0.795	0.933	0.915	0.864	0.774	0.548	0.514	0.554	0.444	0.853	0.412
NCI-H1355	0.976	0.994	1	0.893	0.442	0.444	0.483	0.42	0.484	0.748	0.811	0.766	0.773	0.75	0.456	0.401	0.378	0.38	1.08	0.351
